Laboratory results taken from patent publication EP0017525A1, “Derivatives of tetrahydroalstonine, their preparation and their application as medicaments” (PIERRE FABRE S.A., priority 1979, dated 1980).

Assays:
[1] = tested on: pression artérielle et membrane nictitante; assay: Adrenolytic activity in the anaesthetised cat; assay type: in vivo; conditions: chat
Source text: (§1) Les propriétés adrénolytiques ont été recherchées chez le chat et le chien anesthésiés vis-à-vis de la pression artérielle et de la membrane nictitante (chat).

[2] = tested on: agrégation à l'ADP, au collagène et à l'ADP + adrénaline; assay: In vitro aggregation induced by ADP, collagen and ADP + adrenaline; assay type: cell-based
Source text: Les tétrahydroalstonates de sodium, de créatinol et d'imidazole sont actifs in vitro vis-à-vis de l'agrégation à l'ADP, au collagène et à l'ADP + adrénaline; les concentrations actives.variant de 1.10^-3M à 1.10^-5M selon les tests et les composés particuliers répondant à la formule générale I.

[3] = tested on: pression artérielle; assay: Adrenolytic activity and arterial pressure in the anaesthetised dog; assay type: in vivo; conditions: chien, 0,1 à 10 mg/kg par voie intraveineuse
Method: as §1
Cette activité ne s'accompagne pas de diminution de la force de contraction cardiaque. L'inversion de l'hypertension à l'adrénaline commence dès la dose de 0,05 mg/kg.

[4] = Solubility
[5] = tested on: excrétion urinaire provoquée par l'adrénaline; conditions: rat; for augmentation de l'excrétion urinaire provoquée par l'adrénaline: 100 mg par voie orale; for absorption par voie orale: in vivo, po
[6] = Acute toxicity, intravenous route; assay type: in vivo; conditions: mouse, in vivo, iv; souris, voie intraveineuse; read-out: DL 50 (the source's name)
Method: (§2) Par voie injectable les composés de formule I ont été administrés jusqu'à 100 mg/kg, sans provoquer de mortalité chez le rat. A titre d'exemple, on précisera que la DL 50 par voie intraveineuse chez la souris est de 330 mg/kg pour le tétrahydroalstonate de sodium. La toxicité du tétrahydroalstonate de créatinol chez la souris,par voie intraveineuse calculée selon la méthode de Kärber est de 450 mg/kg.

[7] = tested on: souris; assay: Acute toxicity, intravenous route; assay type: in vivo; conditions: voie intraveineuse, méthode de Kärber
Method: as §2

With `COC(=O)C1=COC(C)C2CN3CCc4c([nH]c5ccccc45)C3CC12` (stereo not drawn) [raubasine, reference compound] the “dose pour laquelle l'adrénolyse est parfaitement nette” value [1] was 2 mg/kg.

For `CC1OC=C(C(=O)O)C2CC3c4[nH]c5ccccc5c4CCN3CC12` (stereo not drawn) [tétrahydroalstonate de sodium, Tétrahydroalstonate de sodium], the “agrégation à l'ADP” value [2] was “actifs”, the “agrégation à l'ADP + adrénaline” value [2] was “actifs” and the “agrégation au collagène” value [2] was “actifs”. The “pression artérielle” value [3] was “diminution progressive de la pression artérielle proportionnelle à la dose”, the solubility ([4]; 95% ethanol, organic solvent or mixture) was 70 mg/mL and the solubility ([4]; chloroform, organic solvent or mixture) was 35 mg/mL. The solubility ([4]; water) was 90 mg/mL, the “augmentation de l'excrétion urinaire provoquée par l'adrénaline” value [5] was “réduisent l'augmentation de l'excrétion urinaire provoquée par l'adrénaline” and the “absorption par voie orale” value [5] was “bonne absorption par voie orale”. The “activité adrénolytique comparée à la raubasine et à la tétrahydroalstonine” value ([1]; voie injectable) was “très nettement supérieure à celle de la raubasine et de la tétrahydroalstonine” and the LD50 [6] was 330 mg/kg.

For `COC(=O)C1=COC(C)C2CN3CCc4c([nH]c5ccccc45)C3CC12` (stereo not drawn) [tétrahydroalstonine, reference compound], the “dose pour laquelle l'adrénolyse est parfaitement nette” value [1] was 0,5 mg/kg.

With Tétrahydroalstonate de créatinol the “agrégation à l'ADP” value [2] was “actifs”, the “agrégation à l'ADP + adrénaline” value [2] was “actifs” and the “agrégation au collagène” value [2] was “actifs”. The “pression artérielle” value [3] was “diminution progressive de la pression artérielle proportionnelle à la dose”, the “augmentation de l'excrétion urinaire provoquée par l'adrénaline” value [5] was “réduisent l'augmentation de l'excrétion urinaire provoquée par l'adrénaline” and the “absorption par voie orale” value [5] was “bonne absorption par voie orale”. The “Solubilités : éthanol à 95” value (95% ethanol) was 5%, the “Solubilités : eau” value (water) was 5% and the “activité adrénolytique comparée à la raubasine et à la tétrahydroalstonine” value ([1]; voie injectable) was “très nettement supérieure à celle de la raubasine et de la tétrahydroalstonine”. For the same molecule, the “dose à laquelle les composés agissent (activité adrénolytique)” value ([1]; voie injectable) was 0,1 mg/kg and the toxicité [7] was 450 mg/kg.

With tétrahydroalstonate d'imidazole the “agrégation à l'ADP” value [2] was “actifs”, the “agrégation à l'ADP + adrénaline” value [2] was “actifs” and the “agrégation au collagène” value [2] was “actifs”.
